Among the data in US20260116920A1, “HUMAN TRANSFERRIN RECEPTOR BINDING PEPTIDE” (PEPTIDREAM INC., priority 2021, published 2026) are Kd values, retold here.

Positions of bridges follow the written chain, without caps; N, C: chain ends. Non-standard residues stand in square brackets, D forms with d. Residues, ends and D or L forms follow the SMILES beside them. *: point of attachment. Trp(1-CH2COOH) = N[C@@H](Cc1cn(CC(=O)O)c2ccccc12)C(=O)O; Nle(6-morpholino) = N[C@@H](CCCCN1CCOCC1)C(=O)O; Phe(3-COOH) = N[C@@H](Cc1cccc(C(=O)O)c1)C(=O)O; NH(CH2CH2O)8Me = COCCOCCOCCOCCOCCOCCOCCOCCN*; NMePhe(3-Cl) = CN[C@@H](Cc1cccc(Cl)c1)C(=O)O; 3Pal(6-NH2) = Nc1ccc(C[C@H](N)C(=O)O)cn1; NMe3Pal = CN[C@@H](Cc1cccnc1)C(=O)O; NMeY = CN[C@@H](Cc1ccc(O)cc1)C(=O)O; 3Pal = N[C@@H](Cc1cccnc1)C(=O)O; 4Pal = N[C@@H](Cc1ccncc1)C(=O)O; PEG4 = NCCOCCOCCOCCOCCC(=O)O; Carboxymethyl = O=C(O)C*

In one assay the target is T1, human transferrin receptor (hTfR) (Homo sapiens, UniProt P02786).
T1 construct: made in house
T1 sequence (P02786 89-760 limits assumed): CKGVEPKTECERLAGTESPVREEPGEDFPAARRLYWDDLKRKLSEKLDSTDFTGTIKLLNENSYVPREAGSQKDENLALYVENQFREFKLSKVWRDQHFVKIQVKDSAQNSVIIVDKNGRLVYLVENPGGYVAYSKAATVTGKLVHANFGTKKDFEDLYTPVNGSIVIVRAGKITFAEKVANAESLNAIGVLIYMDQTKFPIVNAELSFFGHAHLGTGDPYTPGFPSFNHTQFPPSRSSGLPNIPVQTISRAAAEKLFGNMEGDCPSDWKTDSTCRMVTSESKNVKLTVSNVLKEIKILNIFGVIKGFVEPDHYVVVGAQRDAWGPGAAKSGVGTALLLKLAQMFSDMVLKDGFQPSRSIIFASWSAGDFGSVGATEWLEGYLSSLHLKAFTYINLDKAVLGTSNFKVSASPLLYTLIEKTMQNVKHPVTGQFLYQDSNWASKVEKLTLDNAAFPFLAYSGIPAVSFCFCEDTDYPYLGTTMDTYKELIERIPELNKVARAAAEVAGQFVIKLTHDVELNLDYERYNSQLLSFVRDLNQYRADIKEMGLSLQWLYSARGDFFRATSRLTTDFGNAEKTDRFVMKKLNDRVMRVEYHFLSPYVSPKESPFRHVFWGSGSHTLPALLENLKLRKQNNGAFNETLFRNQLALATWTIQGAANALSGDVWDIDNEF
In words: Evaluation of molecular interaction between transferrin receptor (hTfR) and peptide using surface plasmon resonance (SPR). The assay is classed as binding. The settings on record: KD class for binding to hTfR by SPR; peptide with the linker shown in the same line; 'low signal indicates no activity'; read-out: SPR. In short, it runs like this: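 KD values are derived by least-squares fitting of single-cycle kinetic sensorgrams. Peptide series (5–100 nM) flows over recombinant hTfR dimer immobilized on a Ni-NTA chip by EDC/NHS coupling, in pH 8.0 HEPES buffer containing 0.1% BSA and 1.0% DMSO.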
Take `CC[C@H](C)[C@@H]1NC(=O)[C@H](Cc2ccc(OCC(=O)O)cc2)NC(=O)[C@H](Cc2ccc(O)cc2)NC(=O)[C@H](CC(N)=O)NC(=O)[C@H](Cc2cn(CC(=O)O)c3ccccc23)NC(=O)[C@H](C(C)C)NC(=O)[C@H](Cc2cccc(Cl)c2)N(C)C(=O)[C@H](C(C)C)NC(=O)[C@H](C)NC(=O)CSC[C@@H](C(=O)NCCOCCOCCOCCOCCC(N)=O)NC(=O)[C@H](Cc2ccc(O)cc2)N(C)C(=O)[C@H](Cc2ccccc2)NC(=O)[C@H](CCCCN2CCOCC2)NC(=O)[C@H](CCCCN2CCOCC2)NC(=O)[C@H]([C@@H](C)CC)NC1=O` [894_0390] ({CH2CO}-AV[NMePhe(3-Cl)]V[Trp(1-CH2COOH)]NYY(Carboxymethyl)II[Nle(6-morpholino)][Nle(6-morpholino)]F[NMeY]C[PEG4]-NH2; thioether N-15): the Kd was less than 1 nM. As to `CC[C@H](C)[C@@H]1NC(=O)[C@H](Cc2ccc(OCC(=O)O)cc2)NC(=O)[C@H](Cc2ccc(O)cc2)NC(=O)[C@H](CC(N)=O)NC(=O)[C@H](Cc2cn(CC(=O)O)c3ccccc23)NC(=O)[C@H](C(C)C)NC(=O)[C@H](Cc2cccc(Cl)c2)N(C)C(=O)[C@H](C(C)C)NC(=O)[C@H](C)NC(=O)CSC[C@@H](C(=O)NCCOCCOCCOCCOCCC(N)=O)NC(=O)[C@H](Cc2ccc(O)cc2)N(C)C(=O)[C@H](Cc2ccccc2)NC(=O)[C@H](CCCCNC(=O)OC)NC(=O)[C@H](CCCNC(=N)N)NC(=O)[C@H]([C@@H](C)CC)NC1=O` [894_0379], the Kd was 1 to 100 nM. As to `CC[C@H](C)[C@@H]1NC(=O)[C@H](Cc2cccnc2)NC(=O)[C@H](Cc2ccc(N)nc2)NC(=O)[C@H](CC(N)=O)NC(=O)[C@H](Cc2c[nH]c3ccccc23)NC(=O)[C@H](C(C)C)NC(=O)[C@H](Cc2cccnc2)N(C)C(=O)[C@H](C(C)C)NC(=O)[C@H](C)NC(=O)CSC[C@@H](C(=O)NCCOCCOCCOCCOCCC(N)=O)NC(=O)[C@H](Cc2ccc(O)cc2)N(C)C(=O)[C@H](Cc2ccncc2)NC(=O)[C@H](CCCNC(=N)N)NC(=O)[C@H](CCCNC(=N)N)NC(=O)[C@H]([C@@H](C)CC)NC1=O` [894_0321] ({CH2CO}-AV[NMe3Pal]VWN[3Pal(6-NH2)][3Pal]IIRR[4Pal][NMeY]C[PEG4]-NH2; thioether N-15), the Kd fell in the range of 1 to 100 nM. Consider `CC[C@H](C)[C@@H]1NC(=O)[C@H](Cc2ccc(OC)cc2)NC(=O)[C@H](Cc2ccc(O)cc2)NC(=O)[C@H](CC(N)=O)NC(=O)[C@H](Cc2c[nH]c3ccccc23)N(C)C(=O)[C@H](C(C)C)NC(=O)[C@H](Cc2ccncc2)N(C)C(=O)[C@H](C(C)C)NC(=O)[C@H](C)NC(=O)CSC[C@@H](C(=O)NCC(=O)N[C@@H](CCCCN=[N+]=[N-])C(N)=O)NC(=O)[C@H](Cc2ccc(O)cc2)N(C)C(=O)[C@H](Cc2ccccc2)NC(=O)[C@@H](CCCNC(=N)N)NC(=O)[C@H](CCCNC(=N)N)NC(=O)[C@H]([C@@H](C)CC)NC1=O` [894_3158], for which the Kd lay in the range of 1 to 100 nM.

Still in this assay, the particulars now being: peptide with linker, surface plasmon resonance; read-out: SPR (KD class for binding to hTfR).
Consider `CC[C@H](C)[C@@H]1NC(=O)[C@H](Cc2ccc(OCC(=O)O)cc2)NC(=O)[C@H](Cc2ccc(N)nc2)NC(=O)[C@H](CC(N)=O)NC(=O)[C@H](Cc2cn(CC(=O)O)c3ccccc23)NC(=O)[C@H](C(C)C)NC(=O)[C@H](Cc2cccc(Cl)c2)N(C)C(=O)[C@H](C(C)C)NC(=O)[C@H](C)NC(=O)CSC[C@@H](C(=O)NCCOCCOCCOCCOCCC(N)=O)NC(=O)[C@H](Cc2ccc(O)cc2)N(C)C(=O)[C@H](Cc2ccncc2)NC(=O)[C@H](CCCNC(=N)N)NC(=O)[C@H](CCC(=O)NCCOCCOCCOCCOCCOCCOCCOCCOC)NC(=O)[C@H]([C@@H](C)CC)NC1=O` [compound 222], for which the Kd was 1 to 100 nM.

The assay is the same for the next values; noted with them: surface plasmon resonance, binding to hTfR; KD class symbol; read-out: SPR (KD value).
Regarding `CC[C@H](C)[C@@H]1NC(=O)[C@H](Cc2cccnc2)NC(=O)[C@H](Cc2ccc(N)nc2)NC(=O)[C@H](CC(N)=O)NC(=O)[C@H](Cc2c[nH]c3ccccc23)NC(=O)[C@H](C(C)C)NC(=O)[C@H](Cc2cccc(Cl)c2)N(C)C(=O)[C@H](C(C)C)NC(=O)[C@H](C)NC(=O)CSC[C@@H](C(=O)NCCOCCOCCOCCOCCC(N)=O)NC(=O)[C@H](Cc2ccc(O)cc2)N(C)C(=O)[C@H](Cc2cccc(C(=O)O)c2)NC(=O)[C@H](CCC(=O)NCCOCCOCCOCCOCCOCCOCCOCCOC)NC(=O)[C@H](CCCNC(=N)N)NC(=O)[C@H]([C@@H](C)CC)NC1=O` [compound 97] ({CH2CO}-AV[NMePhe(3-Cl)]VWN[3Pal(6-NH2)][3Pal]IIRE(NH(CH2CH2O)8Me)[Phe(3-COOH)][NMeY]C[PEG4]-NH2; thioether N-15), the Kd lay in the range of 1 to 100 nM. The same measure, in the same setting: the figure for `CC[C@H](C)[C@@H]1NC(=O)[C@H](Cc2ccc(O)cc2)NC(=O)[C@H](Cc2ccc(O)cc2)NC(=O)[C@H](CC(N)=O)NC(=O)[C@H](Cc2c[nH]c3ccccc23)NC(=O)[C@H](C(C)C)NC(=O)[C@H](Cc2ccccc2)N(C)C(=O)[C@H](C(C)C)NC(=O)[C@H](C)NC(=O)CSC[C@@H](C(N)=O)NC(=O)[C@H](Cc2ccc(O)cc2)N(C)C(=O)[C@H](Cc2ccccc2)NC(=O)[C@H](CCCCNC(=O)CCOCCOCCOCCOC)NC(=O)[C@H](CCCNC(=N)N)NC(=O)[C@H]([C@@H](C)CC)NC1=O` [compound 2] is 1 to 100 nM. Take `CC[C@H](C)[C@@H]1NC(=O)[C@H](Cc2ccc(OC)cc2)NC(=O)[C@H](Cc2ccc(N)nc2)NC(=O)[C@H](CC(N)=O)NC(=O)[C@H](Cc2cn(CC(=O)O)c3ccccc23)NC(=O)[C@H](C(C)C)NC(=O)[C@H](Cc2cccc(Cl)c2)N(C)C(=O)[C@H](C(C)C)NC(=O)[C@H](C)NC(=O)CSC[C@@H](C(=O)NCCOCCOCCOCCOCCC(N)=O)NC(=O)[C@H](Cc2ccc(O)cc2)N(C)C(=O)[C@H](Cc2cccc(C(=O)O)c2)NC(=O)[C@H](CCCNC(=N)N)NC(=O)[C@H](CCCNC(=N)N)NC(=O)[C@H]([C@@H](C)CC)NC1=O` [compound 72] ({CH2CO}-AV[NMePhe(3-Cl)]V[Trp(1-CH2COOH)]N[3Pal(6-NH2)]Y(Me)IIRR[Phe(3-COOH)][NMeY]C[PEG4]-NH2; thioether N-15): the Kd was in the range of 1 to 100 nM.

Turning to `CC[C@H](C)[C@@H]1NC(=O)[C@H](Cc2ccc(OC)cc2)NC(=O)[C@H](Cc2ccc(N)nc2)NC(=O)[C@H](CC(N)=O)NC(=O)[C@H](Cc2c[nH]c3ccccc23)NC(=O)[C@H](C(C)C)NC(=O)[C@H](Cc2cccc(Cl)c2)N(C)C(=O)[C@H](C(C)C)NC(=O)[C@H](C)NC(=O)CSC[C@@H](C(=O)NCCOCCOCCOCCOCCC(N)=O)NC(=O)[C@H](Cc2ccc(O)cc2)N(C)C(=O)[C@H](Cc2ccncc2)NC(=O)[C@H](CCCNC(=N)N)NC(=O)[C@H](CCCNC(=N)N)NC(=O)[C@H]([C@@H](C)CC)NC1=O` [compound 53], the Kd is 1 to 100 nM. As to `CC[C@H](C)[C@@H]1NC(=O)[C@H](Cc2ccc(OCC(=O)O)cc2)NC(=O)[C@H](Cc2ccc(O)cc2)NC(=O)[C@H](CC(N)=O)NC(=O)[C@H](Cc2cn(CC(=O)O)c3ccccc23)NC(=O)[C@H](C(C)C)NC(=O)[C@H](Cc2cccc(Cl)c2)N(C)C(=O)[C@H](C(C)C)NC(=O)[C@H](C)NC(=O)CSC[C@@H](C(=O)NCCOCCOCCOCCOCCC(N)=O)NC(=O)[C@H](Cc2ccc(O)cc2)N(C)C(=O)[C@H](Cc2ccccc2)NC(=O)[C@H](CCCNC(=N)N)NC(=O)[C@H](CCC(=O)NCCOCCOCCOCCOC)NC(=O)[C@H]([C@@H](C)CC)NC1=O` [compound 110], the Kd lay within 1 to 100 nM. For `CC[C@H](C)[C@@H]1NC(=O)[C@H](Cc2ccc(OCC(=O)O)cc2)NC(=O)[C@H](Cc2ccc(O)cc2)NC(=O)[C@H](CC(N)=O)NC(=O)[C@H](Cc2c[nH]c3ccccc23)NC(=O)[C@H](C(C)C)NC(=O)[C@H](Cc2cccc(Cl)c2)N(C)C(=O)[C@H](C(C)C)NC(=O)[C@H](C)NC(=O)CSC[C@@H](C(=O)NCC(=O)N[C@H](CO)C(=O)N[C@H](CO)C(=O)N[C@H](CO)C(=O)N[C@H](CO)C(=O)N[C@H](CO)C(N)=O)NC(=O)[C@H](Cc2ccc(O)cc2)N(C)C(=O)[C@H](CCC(=O)NCCOCCOCCOCCOC)NC(=O)[C@H](CCCNC(=N)N)NC(=O)[C@H](CCC(=O)NCCOCCOCCOCCOC)NC(=O)[C@H]([C@@H](C)CC)NC1=O` [compound 125], the Kd fell in the range of 1 to 100 nM.

With `CC[C@H](C)[C@@H]1NC(=O)[C@H](Cc2ccc(OCC(=O)O)cc2)NC(=O)[C@H](Cc2ccc(O)cc2)NC(=O)[C@H](CC(N)=O)NC(=O)[C@H](Cc2c[nH]c3ccccc23)NC(=O)[C@H](C(C)C)NC(=O)[C@H](Cc2cccc(Cl)c2)N(C)C(=O)[C@H](C(C)C)NC(=O)[C@H](C)NC(=O)CSC[C@@H](C(=O)NCCOCCOCCOCCOCCC(N)=O)NC(=O)[C@H](Cc2ccc(O)cc2)N(C)C(=O)[C@H](Cc2ccccc2)NC(=O)[C@H](CCCCN2CCOCC2)NC(=O)[C@H](CCC(=O)NCCOCCOCCOCCOC)NC(=O)[C@H]([C@@H](C)CC)NC1=O` [compound 120], the Kd lay in the range of 1 to 100 nM.

For `CC[C@H](C)[C@@H]1NC(=O)[C@H](Cc2ccc(OCC(=O)O)cc2)NC(=O)[C@H](Cc2ccc(O)cc2)NC(=O)[C@H](CC(N)=O)NC(=O)[C@H](Cc2c[nH]c3ccccc23)NC(=O)[C@H](C(C)C)NC(=O)[C@H](Cc2cccc(Cl)c2)N(C)C(=O)[C@H](C(C)C)NC(=O)[C@H](C)NC(=O)CSC[C@@H](C(=O)NCC(=O)N[C@H](CO)C(=O)N[C@H](CO)C(=O)N[C@H](CO)C(=O)N[C@H](CO)C(=O)N[C@H](CO)C(N)=O)NC(=O)[C@H](Cc2cccc(C(=O)NCCOCCOCCOCCOC)c2)N(C)C(=O)[C@H](Cc2cccc(C(=O)NCCOCCOCCOCCOC)c2)NC(=O)[C@H](CCCNC(=N)N)NC(=O)[C@H](CCC(N)=O)NC(=O)[C@H]([C@@H](C)CC)NC1=O` [compound 129], the Kd was 1 to 100 nM. Still for that read-out and setting: the same measure for `CC[C@H](C)[C@@H]1NC(=O)[C@H](Cc2ccc(OCC(=O)O)cc2)NC(=O)[C@H](Cc2ccc(N)nc2)NC(=O)[C@H](CC(N)=O)NC(=O)[C@H](Cc2cn(CC(=O)O)c3ccccc23)NC(=O)[C@H](C(C)C)NC(=O)[C@H](Cc2cccc(Cl)c2)N(C)C(=O)[C@H](C(C)C)NC(=O)[C@H](C)NC(=O)CSC[C@@H](C(=O)NCCOCCOCCOCCOCCC(N)=O)NC(=O)[C@H](Cc2ccc(O)cc2)N(C)C(=O)[C@H](Cc2ccncc2)NC(=O)[C@H](CCCNC(=N)N)NC(=O)[C@H](CCC(=O)NCCOCCOCCOCCOC)NC(=O)[C@H]([C@@H](C)CC)NC1=O` [compound 117]: 1 to 100 nM.
